# Measurements taken from US7141676B1, “Water soluble multi-biotin-containing compounds” (University of Washington, priority 1996, dated 2006).
# Legend:
# [1] = Water solubility (dissolve in water, stand about 24 hours, centrifuge, HPLC of aqueous layer); type: physicochemical; settings: pH 7, water, thermodynamic from solid, neutral pH and ambient temperature
# Source text: The solubility of biotin moieties in aqueous media is enhanced according to the present invention by attaching a water-soluble linker moiety, typically through the carboxylate group of the biotin. Water-soluble linker moieties, L, according to the present invention, compromise any linker moiety that, when conjugated or coupled (e.g., covalently bonded) to a biotin moiety and the cross-linker, C, increases the water solubility of the biotin-containing compound. […] Dissolving the compound in water, stirring the solution, and allowing the solution to stand at room temperature for about 24 hours determines solubility. The solution then is centrifuged and the resultant aqueous layer analyzed using high performance liquid chromatography (“HPLC”). The HPLC analysis is conducted with a gradient using acetonitrile or methanol and water as the solvent mixture on a reversed-phase column.
# [2] = neutral pH and ambient temperature; cited from earlier work
# [3] = biological target: T1, streptavidin (Streptomyces avidinii, UniProt P22629); experiment: Streptavidin cross-linking with biotin compounds on streptavidin coated polystyrene plate using 125I labeled streptavidin (Example 7); type: binding; settings: 100 pmol biotin compound, 25 pmol 125I streptavidin per well, up to 4 alternating additions
# T1 construct: purchased Pierce
# Source text: This experiment was designed to test streptavidin cross-linking with biotin monomer, biotin dimers comprising water-soluble linkers, and biotin moiety trimers comprising water-soluble linkers. Each of the biotin dimers and trimers used experimentally was water-soluble. […] The biotin dimers used herein are structures 28, 29, and 30. The trimers used herein are structures 23 (page 26), 24 (page 26), and 31. The biotin monomer used herein is the N-[13-(p-iodobenzamido)4,7,10-trioxatridacanyl]biotinamide.
# A Reacti-Bind Streptavidin Coated Polystyrene Strip Place (Pierce) was washed with 100 mM PBS prior to use. To lane one (12-wells) was added 100 μL PBS. To lanes 2–7 were added 100 pmol of biotin dimer or biotin trimer to be tested in 100 μL PBS. Lane 8 was treated in the same manner with 100 pmol of biotin monomer. The plate then was incubated at 37° C. with shaking for 10 minutes. All the wells then were emptied and rinsed with 100 μL PBS. The PBS was removed and 25 pmol of ^125I labeled streptavidin (specific activity of 1 μCi/ug) in 100 μL PBS was added to each well. […]
# The first 9 wells in each lane were then filled with 100 μL PBS and the remaining 3 wells in each lane were filled with 100 μL of their respective dimer or trimer. […] The amount of activity remaining in each well was determined as a percentage of the highest initial streptavidin binding.
# T1 sequence (P22629 25-183, species assumed): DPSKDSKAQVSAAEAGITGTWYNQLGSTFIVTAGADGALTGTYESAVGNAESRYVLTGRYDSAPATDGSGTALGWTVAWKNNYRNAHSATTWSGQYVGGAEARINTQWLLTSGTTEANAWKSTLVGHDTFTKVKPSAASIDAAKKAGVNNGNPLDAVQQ
Compound,solubility [1] [mg/mL],further results
CC(CC(=O)NCCCOCCOCCOCCCNC(=O)c1cc(C(=O)NCCCOCCOCCOCCCNC(=O)CC(C)NC(=O)CCCCC2SCC3NC(=O)NC32)cc(C(=O)NCCCOCCOCCOCCCNC(=O)CC(C)NC(=O)CCCCC2SCC3NC(=O)NC32)c1)NC(=O)CCCCC1SCC2NC(=O)NC21 (centres unmarked) [structure 31],> 0.2,–
O=C(CCCCC1SCC2NC(=O)NC21)NCCOCCONC(=O)CCCCC1SCC2NC(=O)NC21 (centres unmarked) [structure 28],> 0.2,–
CC(CC(=O)NCCCOCCOCCOCCCNC(=O)CC(C)NC(=O)CCCCC1SCC2NC(=O)NC21)NC(=O)CCCCC1SCC2NC(=O)NC21 (centres unmarked) [structure 30],> 0.2,–
O=C(O)CCCC[C@@H]1SC[C@@H]2NC(=O)N[C@@H]21 [biotin],–,solubility in water [2]: approximately 0.2 mg/mL
O=C(CCCCC1SCC2NC(=O)NC21)NCCCOCCOCCOCCCNC(=O)CCCCC1SCC2NC(=O)NC21 (centres unmarked) [structure 29],> 0.2,–
"O=C(CCCC[C@@H]1SC[C@@H]2NC(=O)N[C@@H]21)NCCCOCCOCCOCCCNC(=O)c1ccc(I)cc1 [biotin monomer, N-[13-(p-iodobenzamido)4,7,10-trioxatridacanyl]biotinamide]",–,streptavidin binding as a function of sequential biotin compound additions (FIG. 1) [3]: Neither the biotin monomer nor any of the biotin dimers tested demonstrated appreciable increases in streptavidin binding
O=C(CCCCC1SCC2NC(=O)NC21)NCCCOCCOCCOCCCNC(=O)c1cc(C(=O)NCCCOCCOCCOCCCNC(=O)CCCCC2SCC3NC(=O)NC32)cc(C(=O)NCCCOCCOCCOCCCNC(=O)CCCCC2SCC3NC(=O)NC32)c1 (centres unmarked) [structure 23],> 0.2,–
O=C(CCCCC1SCC2NC(=O)NC21)NCCCOCCOCCOCCNC(=O)c1cc(C(=O)NCCOCCOCCNC(=O)CCCCC2SCC3NC(=O)NC32)cc(C(=O)NCCOCCOCCNC(=O)CCCCC2SCC3NC(=O)NC32)c1 (centres unmarked) [structure 24],> 0.2,–
